Target: T1, human S1P4 receptor (Homo sapiens, UniProt O95977)
T1 construct: expressed in transfected cells; membranes used
T1 sequence (O95977 1-384): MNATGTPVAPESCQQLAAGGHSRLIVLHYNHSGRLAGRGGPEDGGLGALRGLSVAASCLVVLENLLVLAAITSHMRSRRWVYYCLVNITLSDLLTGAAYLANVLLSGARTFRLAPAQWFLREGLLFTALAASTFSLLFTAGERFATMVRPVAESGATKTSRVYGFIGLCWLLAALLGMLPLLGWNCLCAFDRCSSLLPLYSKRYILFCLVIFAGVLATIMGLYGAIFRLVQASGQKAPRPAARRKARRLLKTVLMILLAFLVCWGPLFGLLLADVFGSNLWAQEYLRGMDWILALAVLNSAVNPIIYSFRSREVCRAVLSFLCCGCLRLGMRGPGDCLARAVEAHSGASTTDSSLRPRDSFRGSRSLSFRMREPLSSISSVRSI
Assay: GTP γ35S binding assay for S1P4 activity
Type: biochemical
Settings: activity potency at the S1P4 receptor from GTP γ35S binding; membranes of cells stably expressing the S1P4 receptor; test compounds 0.08 to 5,000 nM
Method: Compounds were synthesized and tested for S1P4 activity using the GTP γ^35S binding assay. These compounds may be assessed for their ability to activate or block activation of the human S1P4 receptor in cells stably expressing the S1P4 receptor.
GTP γ^35S binding was measured in the medium containing (mM) HEPES 25, pH 7.4, MgCl2 10, NaCl 100, dithitothreitol 0.5, digitonin 0.003%, 0.2 nM GTP γ^35S, and 5 μg membrane protein in a volume of 150 μl. Test compounds were included in the concentration range from 0.08 to 5,000 nM unless indicated otherwise. Membranes were incubated with 100 μM 5′-adenylylimmidodiphosphate for 30 min, and subsequently with 10 μM GDP for 10 min on ice. Drug solutions and membrane were mixed, and then reactions were initiated by adding GTP γ^35S and continued for 30 min at 25° C. Reaction mixtures were filtered over Whatman GF/B filters under vacuum, and washed three times with 3 mL of ice-cold buffer (HEPES 25, pH7.4, MgCl2 10 and NaCl 100). Filters were dried and mixed with scintillant, and counted for ^35S activity using a β-counter. Agonist-induced GTP γ^35S binding was obtained by subtracting that in the absence of agonist. Binding data were analyzed using a non-linear regression method. In case of antagonist assay, the reaction mixture contained 10 nM S1P in the presence of test antagonist at concentrations ranging from 0.08 to 5000 nM.

Row | SMILES | EC50 [nM]
1 | CNc1ncccc1-c1noc(/C(=C/c2ccc(C)c(C)c2)c2cccs2)n1 [3-{5-[(Z)-2-(3,4-dimethylphenyl)-1-(2-thienyl)vinyl]-1,2,4-oxadiazol-3-yl}-N-methylpyridin-2-amine] | 140
2 | CNc1ncccc1-c1noc(/C(=C/c2ccc(C)c(C)c2)c2cccc(F)c2)n1 [Compound 5, 3-{5-[(E)-2-(3,4-Dimethylphenyl)-1-(3-fluorophenyl)vinyl]-1,2,4-oxadiazol-3-yl}-N-methylpyridin-2-amine] | 375
3 | CNc1ncccc1-c1noc(/C(=C/c2ccc(C)c(C)c2)c2cccc(C)c2)n1 [Compound 6, 3-{5-[(E)-2-(3,4-Dimethylphenyl)-1-(3-methylphenyl)vinyl]-1,2,4-oxadiazol-3-yl}-N-methylpyridin-2-amine] | 2020
4 | CNc1ncccc1-c1noc(/C(=C/c2ccc(C)c(C)c2)c2cccc(Cl)c2)n1 [Compound 7, 3-{5-[(E)-1-(3-Chlorophenyl)-2-(3,4-dimethylphenyl)vinyl]-1,2,4-oxadiazol-3-yl}-N-methylpyridin-2-amine] | 79.3
5 | CNc1ncccc1-c1noc(/C(=C/c2ccc(C)c(C)c2)c2cccc(OC)c2)n1 [Compound 15, 3-{5-[(E)-2-(3,4-Dimethylphenyl)-1-(3-methoxyphenyl)vinyl]-1,2,4-oxadiazol-3-yl}-N-methylpyridin-2-amine] | 1780
6 | CNc1ncccc1-c1noc(/C(=C/c2ccccc2C)c2cccc(Cl)c2)n1 [Compound 20, 3-{5-[(E)-1-(3-Chlorophenyl)-2-(2-methylphenyl)vinyl]-1,2,4-oxadiazol-3-yl}-N-methylpyridin-2-amine] | 2000

Results, then the molecule that gave them:

Row | EC50 [nM] | SMILES
7 | 665 | CNc1ncccc1-c1noc(/C(=C/c2ccc(C)c(C)c2)c2ccsc2)n1 [Compound 8, 3-{5-[(E)-2-(3,4-Dimethylphenyl)-1-(3-thienyl)vinyl]-1,2,4-oxadiazol-3-yl}-N-methylpyridin-2-amine]
8 | 635 | CNc1ncccc1-c1noc(/C(=C/c2ccc(C)cc2)c2cccs2)n1 [Compound 10, N-Methyl-3-{5-[(Z)-2-(4-methylphenyl)-1-(2-thienyl)vinyl]-1,2,4-oxadiazol-3-yl}pyridin-2-amine]
9 | 550 | CNc1ncccc1-c1noc(/C(=C/c2ccc(C)c(C)c2)c2cc(F)cc(F)c2)n1 [Compound 14, 3-{5-[(E)-1-(3,5-Difluorophenyl)-2-(3,4-dimethylphenyl)vinyl]-1,2,4-oxadiazol-3-yl}-N-methylpyridin-2-amine]
10 | 501 | CNc1ncccc1-c1noc(/C(=C/c2ccc(C)c(C)c2)c2ccccc2OC)n1 [Compound 16, 3-{5-[(E)-2-(3,4-Dimethylphenyl)-1-(2-methoxyphenyl)vinyl]-1,2,4-oxadiazol-3-yl}-N-methylpyridin-2-amine]

From patent US8288555B2, “Alkene derivatives as sphingosine 1-phosphate (S1P) receptor modulators” (Allergan, Inc., priority 2010, dated 2012)
